Laboratory results as given in US20110152271A1, “Compositions and methods for ophthalmic delivery of nasal decongestants” (priority 2009, published 2011).
Where two headings read alike, the source gives them in different places.

Key:
[1] = 0.025% brimonidine topically to one eye; 10 minutes; 11 individuals
Procedure: 11 individuals were asked to assess the patency of each nostril by alternately closing one. They were then given 0.025% brimonidine topically to one randomly selected eye. After 10 minutes each nostril was alternately closed to assess the patency of the contralateral nostril and compare to its patency before applying brimonidine to the eye. […] Nasal patency refers to a basic evaluation of the degree to which a nostril is open (i.e. unblocked).

[2] = 0.025% brimonidine in one eye
Procedure: Eight (8) human subjects were administered 0.025% brimonidine. The subjects were administered with the drug in one eye and then asked to assess themselves in the mirror to see if they perceived a difference in conjunctival hyperemia between eyes. The drug was administered around 9:15 am. The assessments were made 5 minutes after the administration and 4 hours after the administration. After the four hours assessment, the drug was re-administered.

[3] = Procedure: 1 drop of 0.025% brimonidine was applied to the right eye of each patient. […] Then, the breathing function was measured in each nostril separately 10 minutes later. Then, 1 dose of 0.0045% brimonidine nasal spray was applied into the left nostril and the ease of breathing was again measured in each nostril separately 10 minutes later.

## Brc1c(NC2=NCCN2)ccc2nccnc12 [brimonidine]
[1]
  increase in patency in the contralateral nostril: not in the contralateral
  patients with noticeable increase in patency in the ipsilateral nostril: 9 of the 11
[2]; 5 min assessment
  subjects reporting reduced hyperemia and increased whiteness in the treated eye: eight of eight
[2]; four hour assessment
  subjects reporting reduced hyperemia and increased whiteness in the treated eye: eight of eight
  subjects reporting reduced nasal congestion in the nostril on the same side as the treated eye: six of eight
[3]; 1 drop of 0.025% brimonidine to the right eye
  whiteness of the treated right eye: In all patients, the right eye has become whiter
[3]; 1 drop of 0.025% brimonidine to the right eye, 10 minutes later, three subjects with records
  patients reporting reduced nasal congestion in the right nostril: all three patients reported reducing nasal congestion in the right nostril
[3]; after eye drop, 1 dose of 0.0045% brimonidine nasal spray into the left nostril, 10 minutes later, three subjects with records
  patients reporting reduced nasal congestion in both nostrils: all three patients reported reduced nasal congestion in the both nostrils
